Reference: patent publication US20210369691A1, “METHODS AND COMPOSITIONS FOR IMPROVING BONE MARROW HEMATOPOIETIC FUNCTIONS” (Sun Yat-Sen University, priority 2018, published 2021)

Experiments:
platelets [1] = assay: Platelet recovery in peripheral blood after X-ray radiation; format: in vivo, mice; conditions: after X-ray 450 cGy; ABC294640 10 mg/kg i.p. every other day; days 0, 1, 7, 14; vs solvent control; **P<0.01; FIG. 8
Experimental: (§1) Preparation of SphK2 inhibitors was as described in Example 4. Twelve 8-week-old C57 mice purchased from Laboratory Animal Center, Sun Yat-sen University were selected and divided evenly into two groups. The mice were treated with X-ray radiation at a dose of 450 cGy. The injection of the inhibitor ABC294640 and the solvent control solution was as described in Example 4. Intraperitoneal injection of the inhibitor or the solvent control solution started from the day after the X-ray radiation, followed by injections once every other day, at a dose of 10 mg/kg, until the end of the experiment. Periphery blood (PB) of each mouse was separately collected to determine white blood cell (WBC) counts 0, 1, 7 and 14 days after X-ray radiation. T-test analysis was carried out using Graphpad6.0, and differences were considered statistically significant when P<0.05.
The experiment was conducted as described in Example 7. Periphery blood (PB) of each mouse was separately collected to determine platelets (PLT) counts 0, 1, 7 and 14 days after X-ray radiation. T-test analysis was carried out using Graphpad6.0, and differences were considered statistically significant when P<0.05.

white blood cells [2] = assay: White blood cell recovery after bone marrow transplantation; format: in vivo, mice; conditions: 7-35 days after bone marrow transplantation; ABC294640 10 mg/kg every other day; vs solvent control
Experimental: (§2) Twenty-five 8-week-old C57 mice (purchased from Laboratory Animal Center, Sun Yat-sen University) were selected and kept in a specific pathogen free (SPF) environment. 5 mice were randomly selected and sacrificed by cervical dislocation. Femurs and tibias were taken and the bone marrow was obtained from the bone marrow cavity with an 1 ml syringe. Bone marrow was dispersed to form a single cell suspension and lysed with red blood cell lysis buffer for 2 min to remove red blood cells, followed by filtering through a 70 μm filter screen to obtain a single cell suspension. The other 20 mice were treated with X-ray radiation at a dose of 900 cGy, and were injected with 400,000 of the prepared bone marrow single cell suspension via tail vein, respectively. Then, the recipient mice were divided evenly into 2 groups, and mice of the ABC294640 treatment group were subjected to intraperitoneal injection of ABC294640 every other day. Mice in the control group was injected with a solvent solution control (1:1 of physiological saline: PEG400) solution. ABC294640 was purchased from Selleck and dissolved in dimethyl sulfoxide (DMSO), and diluted with a mixture solution of polyethylene glycol 400 (PEG400) and physiological saline (1:1) to be administered at a dose of 10 mg/kg.
(§3) Preparation of SphK2 inhibitors was as described in Example 10. […]

hematopoietic stem cells [3] = assay: Serial transplantation repopulation assay of bone marrow cells after 5FU and ABC294640 treatment; format: in vivo, mice
Text: FIG. 28. illustrates the quantification of functional HSCs by transplantation assay. 2×10^5 bone marrow cells from C57BL/6J mice after 5FU and ABC294640 or vehicle control treatment were transplanted into […] mice along with 2×10^5 recipient bone marrow cells. 1×10^6 bone marrow cells from primary or secondary recipient mice were transplanted into […] mice in secondary or tertiary recipients respectively. PB analysis for total engrafted donor cells at the indicated number of weeks after transplantation. FIG. 29. illustrates the percentage of donor-derived B, T and myeloid lineage cells at 16 weeks after transplantation. Repopulation analyses was also performed to investigate whether ABC294640 treatment functionally promotes HSC regeneration after chemotherapeutic stress.

hematopoietic stem cells [4] = assay: Hematopoietic stem cell number and cell cycle in uninjured mice after ABC294640 treatment; format: in vivo; conditions: vs solvent control
Text: FIG. 27. illustrates the absolute number of HSPCs (LT-HSC, ST-HSC, MPP and CD150HSC) in the bone marrow (a) and cell cycle analysis of CD150 HSCs (b) in bone marrow from C57BL/6J mice after ABC294640 or solvent control treatment (n=5 mice). Data represent mean±s.d. Two-tailed Student's t-tests were used to assess statistical significance. *P<0.05, **P<0.01, ***P<0.001. To analyze whether Sphk2 inhibitor is effective in expanding hematopoietic stem cell number and enhance their function. Twenty 8-week-old C57 mice (purchased from Laboratory Animal Center, Sun Yat-sen University) were selected for the experiment. The mice were divided evenly into an inhibitor treatment group and a control group. The mice were injected intraperitoneally with ABC294640 (inhibitor treatment group) or solvent control (1:1 physiological saline: PEG400) solution (control group) every other day. 14 days after the first injection, bone marrow cells were harvested from both groups, and were analyzed for the number of hematopoietic stem cells, with methods and analysis as described in Example 1. To evaluate the hematopoietic function of the hematopoietic stem cells, 2×10^5 bone marrow cells from Sphk2 inhibitor or solvent control treated mice were transplanted into irradiated recipients (as described in Example 13). Peripheral blood was collected from the tail vein every 4 weeks after transplantation. The hematopoietic repopulation function was examined from donor-derived blood cells. The Sphk2 inhibitor was prepared as described in Example 4. Briefly, ABC294640 was purchased from Selleck and dissolved in dimethyl sulfoxide (DMSO), which was finally diluted with a mixture solution of polyethylene glycol 400 (PEG400) and physiological saline (1:1) to be administered at a dose of 10 mg/kg. T-test analysis was carried out using Graphpad6.0, and differences were considered statistically significant when *P<0.05, **P<0.01 and ***P<0.001.

white blood cells [5] = assay: White blood cell recovery in peripheral blood after X-ray radiation; format: in vivo, mice; conditions: after X-ray 450 cGy; ABC294640 10 mg/kg i.p. every other day; days 0, 1, 7, 14; vs solvent control; FIG. 7
Experimental: as §1

platelets [6] = assay: Platelet recovery after bone marrow transplantation; format: in vivo, mice; conditions: 7-35 days after bone marrow transplantation; ABC294640 10 mg/kg every other day; vs solvent control
Experimental: as §2, §3

[7] = 16 weeks after transplantation, FIG. 29
[8] = at 16 weeks, donor bone marrow after 5FU and ABC294640 vs solvent control, FIG. 28

## O=C(NCc1ccncc1)C12CC3CC(C1)CC(c1ccc(Cl)cc1)(C3)C2 [ABC294640, 3-(4-chloro-phenyl)-adamantane-1-carboxylic acid (pyridin-4-ylmethyl)-amide]
Platelets [1]
  number of platelets in the peripheral blood: significantly increased
White blood cells [2]
  number of white blood cells in the peripheral blood: significantly (*P<0.05, **P<0.01 and ***P<0.001) increased
Hematopoietic stem cells [3]; [7]
  lymphopoiesis in recipients: markedly promoted lymphopoiesis
  myeloid skewing in recipients: suppressed myeloid skewing
Hematopoietic stem cells [3]; [8]
  increase of reconstitution, primary transplantation: about 1.7 fold
  increase of reconstitution, secondary transplantation: about 1.5 fold
  increase of reconstitution, tertiary transplantation: about 1.9 fold
Hematopoietic stem cells [4]; ABC294640 10 mg/kg i.p. every other day, 14 days after first injection, FIG. 14 panel b
  increase of number of hematopoietic stem cells: 1.7 fold
Hematopoietic stem cells [4]; FIG. 27
  increase of CD150 HSCs (expanded HSC pool): 1.7 fold
  increase of LT-HSCs (expanded HSC pool): 2.1 fold
  quiescence of HSCs (cell cycle analysis of CD150 HSCs): increased quiescence
White blood cells [5]
  number of white blood cells from the peripheral blood: significantly increased
Platelets [6]
  number of platelets in the peripheral blood: significantly (*P<0.05, and ***P<0.001) increased
